Data: patent US20180017546A1, “METHODS OF ADMINISTERING AND EVALUATING NITROGEN SCAVENGING DRUGS FOR THE TREATMENT OF HEPATIC ENCEPHALOPATHY” (Horizon Therapeutics, LLC, priority 2012, published 2018)
Like-named read-outs stand apart in the source and are kept apart here.

Experiments:
[1] = Conversion of PAA prodrug to urinary PAGN in 130 HE patients at steady state dosing; type: in vivo, human; settings: steady state dosing with NaPBA or equivalent dose of HPN-100
Protocol: As disclosed herein, additional trials have been performed to evaluate the conversion of PAA to urinary PAGN in subjects with HE. Urinary PAGN output was measured in 130 HE patients during steady state dosing with either NaPBA or an equivalent dose of HPN-100. As summarized in Table 11, the mean percent conversion of PAA prodrug to urinary PAGN in HE patients was about 57%, with a 95% confidence interval range of 52-63%.

[2] = cited from earlier work; for Mean percent conversion of HPN-100 to urinary PAGN: 8 subjects
[3] = tested on: subjects with cirrhosis and HE; assay: HALT-HE clinical trial: count of HE events over 16 weeks by plasma ammonia level; type: in vivo, human
Protocol: The relationship between HE events and fasting ammonia levels was evaluated in subjects from the HALT-HE clinical trial (HPN-100-008, ClinicalTrials.gov identifier NCT00999167). To be eligible for HE analysis, subject had to (1) be included in the HALT-HE (Part B) safety population, (2) have at least one treatment with a study drug (either HPN-100 or placebo), and (3) have a quantifiable measurement of plasma ammonia from a blood specimen drawn at the visit and time point of interest. Of the 178 total subjects enrolled in the HALT-HE study and included in the safety population, 171 met the additional criteria.
Fasting ammonia levels were measured on day 1 (baseline) and at days 7 and 14. Day 1 values were derived from the measurement closest to, but prior to, initiation of dosing. Day 7 and 14 values were obtained from the nominal visit day and time point (pre-dose or 4-hour). To account for differences in local laboratories used during the clinical trial, local measurements of ammonia were standardized to an upper limit of normal (ULN) of 35 μmol/L according to the following formula:
Ammoniastd=Ammonialocal*(35/ULN of Ammonialocal).
[…] An HE event was defined as the occurrence of either (1) a West Haven Grade 2 or above or (2) a West Haven Grade 1 AND an asterixis grade increase of 1, if baseline West Haven was 0.
To describe the relationship between plasma ammonia levels and HE events, ammonia levels at the nominal times were initially grouped into five categories as multiples of the standardized ULN (35 μmol/L): (1) [0-≦0.5], (2) [0.5-≦1.0], (3) [1.0-≦1.5], (4) [1.5-≦2.0], and (5) [>2.0].
Each subject had between zero and eight HE episodes over the course of their exposure to study drug. The relationship between ammonia at a given nominal time and the number of HE events was modeled using a negative binomial model whereby the effect of study drug was considered only after controlling for ammonia level. […] Based on the model, the number of HE events was estimated for each level of ammonia. By comparing each level of ammonia to the lowest level, the pattern of the relationship could not only be described but also statistically tested through a priori contrasts.
The relationship between HE events and ammonia levels at day 7 (pre-dose), day 7 (four hours after dosing), day 14 (pre-dose), and day 14 (four hours after dosing) for each of these groups is summarized in FIGS. 2-6. […] The relationship between HE events and ammonia levels at day 1, day 7 (pre-dose), day 7 (four hours after dosing), day 14 (pre-dose), and day 14 (four hours after dosing) for each of these groups is summarized in Tables 1-5, respectively. In each table, the first three rows for each treatment group show results for the three category model ([0-1.0], [>1.0-1.5], and [>1.5]), while the next two rows show results for the two category model ([0-1.5] and [>1.5]). Note that, based on the statistical methodology, estimation of HE events for input category >1.5 in a two category model is not necessarily equal to the result for the three category model.

[4] = ammonia on day 7, four hours post-dose, [0-1.0] ULN, three category model
[5] = ammonia on day 7, four hours post-dose, [0-1.5] ULN, two category model
[6] = ammonia on day 7, four hours post-dose, [>1.0-1.5] ULN, three category model
[7] = ammonia on day 7, four hours post-dose, [>1.5] ULN, three category model
[8] = ammonia on day 7, four hours post-dose, [>1.5] ULN, two category model
[9] = ammonia on day 14 (pre-dose), [0-1.0] ULN, three category model
[10] = ammonia on day 14 (pre-dose), [0-1.5] ULN, two category model
[11] = ammonia on day 14 (pre-dose), [>1.0-1.5] ULN, three category model
[12] = ammonia on day 14 (pre-dose), [>1.5] ULN, three category model
[13] = ammonia on day 14 (pre-dose), [>1.5] ULN, two category model
[14] = ammonia on day 14, four hours post-dose, [0-1.0] ULN, three category model
[15] = ammonia on day 14, four hours post-dose, [0-1.5] ULN, two category model
[16] = ammonia on day 14, four hours post-dose, [>1.0-1.5] ULN, three category model
[17] = ammonia on day 14, four hours post-dose, [>1.5] ULN, three category model
[18] = ammonia on day 14, four hours post-dose, [>1.5] ULN, two category model
[19] = pre-dose ammonia on day 1, [0-1.0] ULN, three category model
[20] = pre-dose ammonia on day 1, [0-1.5] ULN, two category model
[21] = pre-dose ammonia on day 1, [>1.0-1.5] ULN, three category model
[22] = pre-dose ammonia on day 1, [>1.5] ULN, three category model
[23] = pre-dose ammonia on day 1, [>1.5] ULN, two category model
[24] = pre-dose ammonia on day 7, [0-1.0] ULN, three category model
[25] = pre-dose ammonia on day 7, [0-1.5] ULN, two category model
[26] = pre-dose ammonia on day 7, [>1.0-1.5] ULN, three category model
[27] = pre-dose ammonia on day 7, [>1.5] ULN, three category model
[28] = pre-dose ammonia on day 7, [>1.5] ULN, two category model

Compound: O=C(O)CCCc1ccccc1 [sodium PBA, reference compound]
- Mean percent conversion of PAA prodrug to urinary PAGN [1]: consistent

Compound: O=C(CCCc1ccccc1)OCC(COC(=O)CCCc1ccccc1)OC(=O)CCCc1ccccc1 [HPN-100, glyceryl tri-[4-phenylbutyrate]]
- Mean percent conversion of HPN-100 to urinary PAGN ([2]; control group of healthy adults with normal hepatic function): 68.6%
- Mean percent conversion of HPN-100 to urinary PAGN ([2]; hepatic impairment with cirrhosis, Child-Pugh score A): 79.6%
- Mean percent conversion of HPN-100 to urinary PAGN ([2]; hepatic impairment with cirrhosis, Child-Pugh score B): 58.2%
- Mean percent conversion of HPN-100 to urinary PAGN ([2]; hepatic impairment with cirrhosis, Child-Pugh score C): 85.0%
- Overall mean percent conversion of HPN-100 to urinary PAGN ([2]; overall for the four subject groups): about 75%
- Mean percent conversion of PAA prodrug to urinary PAGN [1]: consistent
- No. of per-subject HE Events Estimated over 16 weeks [3, 4]: 0.16
- No. of per-subject HE Events Estimated over 52 weeks [3, 4]: 0.51
- No. of per-subject HE Events Max [3, 4]: 2
- No. of per-subject HE Events Min [3, 4]: 0
- No. of per-subject HE Events Estimated over 16 weeks [3, 5]: 0.41
- No. of per-subject HE Events Estimated over 52 weeks [3, 5]: 1.34
- No. of per-subject HE Events Max [3, 5]: 5
- No. of per-subject HE Events Min [3, 5]: 0
- No. of per-subject HE Events Estimated over 16 weeks [3, 6]: 0.88
- No. of per-subject HE Events Estimated over 52 weeks [3, 6]: 2.85
- No. of per-subject HE Events Max [3, 6]: 5
- No. of per-subject HE Events Min [3, 6]: 0
- No. of per-subject HE Events Estimated over 16 weeks [3, 7]: 1.16
- No. of per-subject HE Events Estimated over 52 weeks [3, 7]: 3.77
- No. of per-subject HE Events Max [3, 7]: 4
- No. of per-subject HE Events Min [3, 7]: 0
- No. of per-subject HE Events Estimated over 16 weeks [3, 8]: 1.18
- No. of per-subject HE Events Estimated over 52 weeks [3, 8]: 3.85
- No. of per-subject HE Events Max [3, 8]: 4
- No. of per-subject HE Events Min [3, 8]: 0
- No. of per-subject HE Events Estimated over 16 weeks [3, 9]: 0.36
- No. of per-subject HE Events Estimated over 52 weeks [3, 9]: 1.18
- No. of per-subject HE Events Max [3, 9]: 5
- No. of per-subject HE Events Min [3, 9]: 0
- No. of per-subject HE Events Estimated over 16 weeks [3, 10]: 0.37
- No. of per-subject HE Events Estimated over 52 weeks [3, 10]: 1.21
- No. of per-subject HE Events Max [3, 10]: 5
- No. of per-subject HE Events Min [3, 10]: 0
- No. of per-subject HE Events Estimated over 16 weeks [3, 11]: 0.40
- No. of per-subject HE Events Estimated over 52 weeks [3, 11]: 1.29
- No. of per-subject HE Events Max [3, 11]: 2
- No. of per-subject HE Events Min [3, 11]: 0
- No. of per-subject HE Events Estimated over 16 weeks [3, 12]: 1.29
- No. of per-subject HE Events Estimated over 52 weeks [3, 12]: 4.21
- No. of per-subject HE Events Max [3, 12]: 4
- No. of per-subject HE Events Min [3, 12]: 0
- No. of per-subject HE Events Estimated over 16 weeks [3, 13]: 1.29
- No. of per-subject HE Events Estimated over 52 weeks [3, 13]: 4.21
- No. of per-subject HE Events Max [3, 13]: 4
- No. of per-subject HE Events Min [3, 13]: 0
- No. of per-subject HE Events Estimated over 16 weeks [3, 14]: 0.28
- No. of per-subject HE Events Estimated over 52 weeks [3, 14]: 0.92
- No. of per-subject HE Events Max [3, 14]: 4
- No. of per-subject HE Events Min [3, 14]: 0
- No. of per-subject HE Events Estimated over 16 weeks [3, 15]: 0.33
- No. of per-subject HE Events Estimated over 52 weeks [3, 15]: 1.09
- No. of per-subject HE Events Max [3, 15]: 4
- No. of per-subject HE Events Min [3, 15]: 0
- No. of per-subject HE Events Estimated over 16 weeks [3, 16]: 0.41
- No. of per-subject HE Events Estimated over 52 weeks [3, 16]: 1.33
- No. of per-subject HE Events Max [3, 16]: 2
- No. of per-subject HE Events Min [3, 16]: 0
- No. of per-subject HE Events Estimated over 16 weeks [3, 17]: 0.96
- No. of per-subject HE Events Estimated over 52 weeks [3, 17]: 3.13
- No. of per-subject HE Events Max [3, 17]: 4
- No. of per-subject HE Events Min [3, 17]: 0
- No. of per-subject HE Events Estimated over 16 weeks [3, 18]: 0.97
- No. of per-subject HE Events Estimated over 52 weeks [3, 18]: 3.14
- No. of per-subject HE Events Max [3, 18]: 4
- No. of per-subject HE Events Min [3, 18]: 0
- No. of per-subject HE Events Estimated over 16 weeks [3, 19]: 0.25
- No. of per-subject HE Events Estimated over 52 weeks [3, 19]: 0.80
- No. of per-subject HE Events Max [3, 19]: 2
- No. of per-subject HE Events Min [3, 19]: 0
- No. of per-subject HE Events Estimated over 16 weeks [3, 20]: 0.39
- No. of per-subject HE Events Estimated over 52 weeks [3, 20]: 1.26
- No. of per-subject HE Events Max [3, 20]: 5
- No. of per-subject HE Events Min [3, 20]: 0
- No. of per-subject HE Events Estimated over 16 weeks [3, 21]: 0.61
- No. of per-subject HE Events Estimated over 52 weeks [3, 21]: 1.98
- No. of per-subject HE Events Max [3, 21]: 5
- No. of per-subject HE Events Min [3, 21]: 0
- No. of per-subject HE Events Estimated over 16 weeks [3, 22]: 1.35
- No. of per-subject HE Events Estimated over 52 weeks [3, 22]: 4.37
- No. of per-subject HE Events Max [3, 22]: 4
- No. of per-subject HE Events Min [3, 22]: 0
- No. of per-subject HE Events Estimated over 16 weeks [3, 23]: 1.36
- No. of per-subject HE Events Estimated over 52 weeks [3, 23]: 4.41
- No. of per-subject HE Events Max [3, 23]: 4
- No. of per-subject HE Events Min [3, 23]: 0
- No. of per-subject HE Events Estimated over 16 weeks [3, 24]: 0.29
- No. of per-subject HE Events Estimated over 52 weeks [3, 24]: 0.95
- No. of per-subject HE Events Max [3, 24]: 2
- No. of per-subject HE Events Min [3, 24]: 0
- No. of per-subject HE Events Estimated over 16 weeks [3, 25]: 0.45
- No. of per-subject HE Events Estimated over 52 weeks [3, 25]: 1.47
- No. of per-subject HE Events Max [3, 25]: 5
- No. of per-subject HE Events Min [3, 25]: 0
- No. of per-subject HE Events Estimated over 16 weeks [3, 26]: 0.90
- No. of per-subject HE Events Estimated over 52 weeks [3, 26]: 2.92
- No. of per-subject HE Events Max [3, 26]: 5
- No. of per-subject HE Events Min [3, 26]: 0
- No. of per-subject HE Events Estimated over 16 weeks [3, 27]: 1.38
- No. of per-subject HE Events Estimated over 52 weeks [3, 27]: 4.50
- No. of per-subject HE Events Max [3, 27]: 4
- No. of per-subject HE Events Min [3, 27]: 0
- No. of per-subject HE Events Estimated over 16 weeks [3, 28]: 1.40
- No. of per-subject HE Events Estimated over 52 weeks [3, 28]: 4.56
- No. of per-subject HE Events Max [3, 28]: 4
- No. of per-subject HE Events Min [3, 28]: 0
